# Source: patent publication US20250313563A1, “GLYCOGEN SYNTHASE KINASE 3 INHIBITORS AND USES THEREOF” (The Broad Institute, Inc., priority 2022, published 2025)
# Where two headings read alike, the source gives them in different places.
# Legend:
# [1] = molecular target: GSK3b (GST-full length GSK3b) (Homo sapiens (Human), UniProt P49841); test: GSK3b TR-FRET kinase assay; type: biochemical; settings: IC50
# Procedure, shortened: (§1)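 Compound preincubated 30 min, then 1 nM GST-full-length GSK3α or GSK3b run 100 min at ambient temperature with 200 nM biotinylated, S645-prephosphorylated glycogen synthase 631-650 peptide in Tris pH 7.5, MgCl2, DTT, BSA, 1% DMSO. ATP 4 μM (α) or 2 μM (β), or 1 mM. EDTA-quenched; Tb-anti-pSer641/streptavidin-d2 TR-FRET 665/615 ratio gave IC50.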
# [2] = molecular target: GSK3α (GST-full length GSK3α) (Homo sapiens (Human), UniProt P49840); test: GSK3α TR-FRET kinase assay; type: biochemical; settings: IC50
# Procedure, shortened: as §1
# [3] = 1 nM GSK3b, 2 μM ATP, 30 minute preincubation, geometric mean, read-out: GSK3-B TR-FRET BIOCHEMICAL (TR-FRET), GMean
# [4] = 1 nM GSK3α, 4 μM ATP, 30 minute preincubation, geometric mean, read-out: GSK3-A TR-FRET BIOCHEMICAL (TR-FRET), GMean
# [5] = read-out: GSK3-B (TR-FRET 1 mM ATP), GMean, 1 mM ATP, geometric mean
# [6] = read-out: GSK3-A (TR-FRET 1 mM ATP), GMean, 1 mM ATP, geometric mean
# GSK3b (GST-full length GSK3b), sequence (P49841 whole entry): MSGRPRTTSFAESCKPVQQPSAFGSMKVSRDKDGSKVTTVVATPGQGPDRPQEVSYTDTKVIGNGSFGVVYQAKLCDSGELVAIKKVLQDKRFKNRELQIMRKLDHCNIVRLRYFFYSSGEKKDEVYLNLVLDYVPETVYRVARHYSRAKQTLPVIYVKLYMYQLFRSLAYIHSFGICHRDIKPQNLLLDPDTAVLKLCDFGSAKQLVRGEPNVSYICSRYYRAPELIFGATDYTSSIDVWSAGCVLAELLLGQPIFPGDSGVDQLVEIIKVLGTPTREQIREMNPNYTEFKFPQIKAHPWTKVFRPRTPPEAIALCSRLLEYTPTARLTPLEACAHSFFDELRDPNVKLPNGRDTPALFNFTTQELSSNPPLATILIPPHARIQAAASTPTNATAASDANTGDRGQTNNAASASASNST
# GSK3α (GST-full length GSK3α), sequence (P49840 whole entry): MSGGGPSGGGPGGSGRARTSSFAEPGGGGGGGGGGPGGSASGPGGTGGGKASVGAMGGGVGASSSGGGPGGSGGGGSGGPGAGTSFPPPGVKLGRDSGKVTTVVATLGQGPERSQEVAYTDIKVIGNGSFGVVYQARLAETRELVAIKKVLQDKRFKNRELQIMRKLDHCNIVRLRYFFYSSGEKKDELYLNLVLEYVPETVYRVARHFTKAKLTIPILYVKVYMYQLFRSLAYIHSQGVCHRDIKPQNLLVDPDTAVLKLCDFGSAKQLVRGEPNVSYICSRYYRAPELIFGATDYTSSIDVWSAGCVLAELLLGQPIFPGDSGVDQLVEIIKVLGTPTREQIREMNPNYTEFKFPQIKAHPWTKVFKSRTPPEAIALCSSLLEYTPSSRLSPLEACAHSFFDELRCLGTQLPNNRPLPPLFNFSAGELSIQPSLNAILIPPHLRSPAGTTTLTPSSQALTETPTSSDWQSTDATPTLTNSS
Compound,"IC50 [1, 3] [µM]","IC50 [2, 4] [µM]","IC50 ([1]; 1 nM GSK3b, 2 μM ATP, 30 minute preincubation, read-out: GSK3-B TR-FRET BIOCHEMICAL (TR-FRET)) [µM]","IC50 ([2]; 1 nM GSK3α, 4 μM ATP, 30 minute preincubation, read-out: GSK3-A TR-FRET BIOCHEMICAL (TR-FRET)) [µM]","IC50 [1, 5] [µM]","IC50 [2, 6] [µM]"
CCC1(c2cccc(SC)c2)C2=C(CC(C)(C)CC2=O)Nc2n[nH]cc21 (stereo not shown) [Compound 810508],0.1 to 1,≤ 0.1,–,–,–,–
CC[C@@]1(c2cccc(N3CCCC3)c2)C2=C(CC(C)(C)CC2=O)Nc2n[nH]cc21 [Compound 810509],> 5,> 5,–,–,–,–
CC1(C)CC(=O)C2=C(C1)Nc1n[nH]c(CC(F)(F)F)c1C21CCc2c(F)cccc21 (stereo not shown) [Compound 810590],0.1 to 1,0.1 to 1,–,–,–,–
CC1(C)CC(=O)C2=C(C1)Nc1[nH]nc(C3(C(F)(F)F)CC3)c1C21CCc2c(F)cccc21 (stereo not shown) [Compound 810591],0.1 to 1,0.1 to 1,–,–,–,–
CCC1(c2ccccc2)C2=C(CS(=O)(=O)CC2=O)Nc2n[nH]cc21 (stereo not shown) [Compound 811512],–,–,> 5,> 5,–,–
CCC1(c2ccccc2)C2=C(CC3(CCC3)CC2=O)Nc2n[nH]cc21 (stereo not shown) [Compound 811555],0.1 to 1,0.1 to 1,–,–,–,–
Cc1[nH]nc2c1C(C)(c1cccc(C(F)(F)F)c1)C1=C(CC(C)(C)CC1=O)N2 (stereo not shown) [Compound 811556],≤ 0.1,≤ 0.1,–,–,–,–
CC[C@]1(c2cccc(C3CC3)c2)C2=C(CC(C)(C)CC2=O)Nc2n[nH]cc21 [Compound 811557],≤ 0.1,≤ 0.1,–,–,1 to 5,0.1 to 1
CCC1(c2cccc(OC)c2)C2=C(CC(C)CC2=O)Nc2n[nH]cc21 (stereo not shown) [Compound 811559],0.1 to 1,≤ 0.1,–,–,–,–
CC[C@@]1(c2cccc(OC)c2)C2=C(CC(C)(C)CC2=O)Nc2n[nH]cc21 [Compound 811561],> 5,1 to 5,–,–,–,–
CC[C@@]1(c2cccc(OC(C)C)c2)C2=C(CC(C)(C)CC2=O)Nc2n[nH]cc21 [Compound 811563],> 5,1 to 5,–,–,–,–
CCC1(c2cccc(-c3cnn(C)c3)c2)C2=C(CC(C)(C)CC2=O)Nc2n[nH]c(C(F)(F)F)c21 (stereo not shown) [Compound 811567],0.1 to 1,0.1 to 1,–,–,–,–
CCC1(c2cccc(-c3cnn(C)c3)c2)C2=C(CC(C)CC2=O)Nc2n[nH]cc21 (stereo not shown) [Compound 816752],1 to 5,≤ 0.1,–,–,–,–
CC1(C)CC(=O)C2=C(C1)Nc1n[nH]cc1C21CCc2c(Cl)cccc21 (stereo not shown) [Compound 816795],0.1 to 1,≤ 0.1,–,–,–,–
CCC1(c2ccccc2)C2=C(CC(C)(C(F)(F)F)CC2=O)Nc2n[nH]cc21 (stereo not shown) [Compound 816796],1 to 5,0.1 to 1,–,–,–,–
CC1(C)CC(=O)C2=C(C1)Nc1n[nH]cc1[C@@]2(C)c1cc(C(F)(F)F)ccc1F [Compound 816797],> 5,1 to 5,–,–,–,–
CC1(C)CC(=O)C2=C(C1)Nc1n[nH]cc1[C@]2(C)c1cc(C(F)(F)F)ccc1F [Compound 816798],0.1 to 1,≤ 0.1,–,–,–,–
CCC1(c2cccc(N3CCCCC3)c2)C2=C(CC(C)(C)CC2=O)Nc2n[nH]c(C(F)(F)F)c21 (stereo not shown) [Compound 816799],1 to 5,0.1 to 1,–,–,–,–
CC[C@]1(c2cccc(N3CCCCC3)c2)C2=C(CC(C)(C)CC2=O)Nc2n[nH]c(C(F)(F)F)c21 [Compound 816800],≤ 0.1,≤ 0.1,–,–,≤ 0.1,≤ 0.1
CC1(C)CC(=O)C2=C(C1)Nc1n[nH]c(CC(F)(F)F)c1C21CCc2c(F)cccc21 (stereo not shown) [Compound 816837],0.1 to 1,1 to 5,–,–,–,–
CC1(C)CC(=O)C2=C(C1)Nc1n[nH]c(C3(C(F)(F)F)CC3)c1C21CCc2c(F)cccc21 (stereo not shown) [Compound 816839],1 to 5,> 5,–,–,–,–
CC1(C)CC(=O)C2=C(C1)Nc1n[nH]c(C3(C(F)(F)F)CC3)c1C21CCc2c(F)cccc21 (stereo not shown) [Compound 816840],0.1 to 1,1 to 5,–,–,–,–
CC[C@]1(c2ccccc2)C2=C(C[C@](C)(COC)CC2=O)Nc2n[nH]cc21 [Compound 816872],> 5,> 5,–,–,–,–
CC[C@]1(c2ccccc2)C2=C(C[C@@](C)(COC)CC2=O)Nc2n[nH]cc21 [Compound 816873],1 to 5,0.1 to 1,–,–,–,–
